Source: publication PMC10721329, “Quisinostat is a brain-penetrant radiosensitizer in glioblastoma” (JCI Insight, 2023)
Where “and” joins values, the source holds several entries; their conditions need not be identical. Equal values may be shown once.

Columns and labels:
Assay in all cases: CellTiter-Glo dose-response cell viability assay
Assay type in all cases: cell-based, human
U87 GBM cell line = system: U87 GBM cell line
Procedure: (§1) QST (JNJ-26481585) is a second-generation hydroxamic acid harboring remarkable selectivity toward class I HDACs, with a biochemical IC50 of 0.1 nM for HDAC1 ([13]). […] To determine the cytotoxic effects of QST, we performed a dose-titration cell viability assay in 7 patient-derived GSC lines (BT145, GB187, GB239, GB282, GB71, GB82, and GB126) and 1 long-term serum-grown human GBM cell line (U87). Because GBMs display a high degree of intratumoral heterogeneity, we used GSCs derived from both primary and recurrent GBMs that harbored distinct genetic mutations or aberrations, growth rates, MGMT promoter methylation status, and gene expression profiles (Supplemental Figure 1; supplemental material available online with this article; https://doi.org/10.1172/jci.insight.167081DS1). Cell lines were treated with various concentrations of QST (10–1000 nM), and cell viability was measured 3–5 days later (Figure 1, A and B). […] Treatment with QST at the IC50 induced significant inhibition of proliferation (Ki67) and an increase in programmed cell death (cleaved caspase 3) in 2 different GSC lines (Figure 1, C and D). Additional analyses confirmed that QST induces apoptosis after short-term treatment through increased staining of the apoptotic marker annexin V (Figure 2A) and cell cycle arrest (in G2- or S-phase; Figure 2B and Supplemental Figure 1B).
(§2) GSCs were seeded in laminin-coated tissue culture–treated 96-well plates (clear bottom, white plate; Corning) at a density of 1000–5000 cells per well (cell line dependent) in GSC media. U87-MG were seeded using their normal growth conditions without laminin (10% bovine calf serum in DMEM). All cells were incubated at 37°C and allowed to adhere overnight. The next day, cells were treated with incremental concentrations of QST (Selleckchem; 0, 10, 25, 50, 100, 250, 500, and 1000 nM) diluted in media. Cells treated without QST were treated with DMSO diluted in media. Following treatment with QST, cells were grown for 3 to 5 days (cell line dependent), and cell viability was measured and quantified. All cell viability measurements were performed using the CellTiter-Glo luminescent cell viability assay (Promega) following the manufacturer’s instructions. For the sulforhodamine B colorimetric assay for cytotoxicity, the protocol was performed as described elsewhere ([33]). All cell viability results represent the mean of at least 3 biological replicates, each containing 3 technical replicates.

[1] = system: GB82 patient-derived GSC line
Procedure: as §1, §2

[2] = system: GB187 patient-derived GSC line
Procedure: as §1, §2

Question: For `Cn1cc(CNCC2CCN(c3ncc(C(=O)NO)cn3)CC2)c2ccccc21` [QST, quisinostat], which viability at 0.01 µM (U87 GBM cell line; Homo sapiens, U87LN, QST 10 nM (log[nM] 1), read-out: Cell viability (fraction of DMSO control)) is on record?
Answer: 83.5%

Question: And the viability at 0.025 µM (U87 GBM cell line; Homo sapiens, U87LN, QST 25 nM (log[nM] 1.39794), read-out: Cell viability (fraction of DMSO control))?
Answer: 56.7%

Question: What about the viability at 0.05 µM (U87 GBM cell line; Homo sapiens, U87LN, QST 50 nM (log[nM] 1.69897), read-out: Cell viability (fraction of DMSO control)) of the same compound?
Answer: 31.6%

Question: And the viability at 0.1 µM (U87 GBM cell line; Homo sapiens, U87LN, QST 100 nM (log[nM] 2), read-out: Cell viability (fraction of DMSO control))?
Answer: 21.5%

Question: What about the viability at 0.25 µM (U87 GBM cell line; Homo sapiens, U87LN, QST 250 nM (log[nM] 2.39794), read-out: Cell viability (fraction of DMSO control)) of the same compound?
Answer: 12.8%

Question: What about the viability at 0.5 µM (U87 GBM cell line; Homo sapiens, U87LN, QST 500 nM (log[nM] 2.69897), read-out: Cell viability (fraction of DMSO control)) of the same compound?
Answer: 9.84%

Question: What about the viability at 1 µM (U87 GBM cell line; Homo sapiens, U87LN, QST 1000 nM (log[nM] 3), read-out: Cell viability (fraction of DMSO control)) of the same compound?
Answer: 8.54%

Question: And the IC50 (U87 GBM cell line; Homo sapiens, U87, 3-5 days)?
Answer: 28 nM

Question: What about the “Cell viability (fraction of DMSO control)” value (U87 GBM cell line; U87LN, QST 10 nM (log[nM] 1)) of the same compound?
Answer: 0.852 and 0.8354

Question: What about the “Cell viability (fraction of DMSO control)” value (U87 GBM cell line; U87LN, QST 25 nM (log[nM] 1.39794)) of the same compound?
Answer: 0.6316 and 0.5286

Question: And the “Cell viability (fraction of DMSO control)” value (U87 GBM cell line; U87LN, QST 50 nM (log[nM] 1.69897))?
Answer: 0.3812 and 0.3792

Question: What about the “Cell viability (fraction of DMSO control)” value (U87 GBM cell line; U87LN, QST 100 nM (log[nM] 2)) of the same compound?
Answer: 0.2379 and 0.236

Question: And the “Cell viability (fraction of DMSO control)” value (U87 GBM cell line; U87LN, QST 250 nM (log[nM] 2.39794))?
Answer: 0.1476 and 0.1204

Question: What about the “Cell viability (fraction of DMSO control)” value (U87 GBM cell line; U87LN, QST 500 nM (log[nM] 2.69897)) of the same compound?
Answer: 0.1063 and 0.09789

Question: And the “Cell viability (fraction of DMSO control)” value (U87 GBM cell line; U87LN, QST 1000 nM (log[nM] 3))?
Answer: 0.08873 and 0.08769

Question: What about the IC50 ([1]; Homo sapiens, 3-5 days) of the same compound?
Answer: 65 nM

Question: What about the viability at 0.01 µM ([1]; Homo sapiens, QST 10 nM (log[nM] 1), read-out: Cell viability (fraction of DMSO control)) of the same compound?
Answer: 78.8%

Question: What about the viability at 0.025 µM ([1]; Homo sapiens, QST 25 nM (log[nM] 1.39794), read-out: Cell viability (fraction of DMSO control)) of the same compound?
Answer: 77.1%

Question: And the viability at 0.05 µM ([1]; Homo sapiens, QST 50 nM (log[nM] 1.69897), read-out: Cell viability (fraction of DMSO control))?
Answer: 66.9%

Question: What about the viability at 0.1 µM ([1]; Homo sapiens, QST 100 nM (log[nM] 2), read-out: Cell viability (fraction of DMSO control)) of the same compound?
Answer: 51.1%

Question: What about the viability at 0.25 µM ([1]; Homo sapiens, QST 250 nM (log[nM] 2.39794), read-out: Cell viability (fraction of DMSO control)) of the same compound?
Answer: 37.7%

Question: And the viability at 0.5 µM ([1]; Homo sapiens, QST 500 nM (log[nM] 2.69897), read-out: Cell viability (fraction of DMSO control))?
Answer: 30.8%

Question: And the viability at 1 µM ([1]; Homo sapiens, QST 1000 nM (log[nM] 3), read-out: Cell viability (fraction of DMSO control))?
Answer: 26.5%

Question: What about the “Cell viability (fraction of DMSO control)” value ([1]; QST 10 nM (log[nM] 1)) of the same compound?
Answer: 0.7668 and 0.8052

Question: And the “Cell viability (fraction of DMSO control)” value ([1]; QST 25 nM (log[nM] 1.39794))?
Answer: 0.6655 and 0.6833

Question: And the “Cell viability (fraction of DMSO control)” value ([1]; QST 50 nM (log[nM] 1.69897))?
Answer: 0.651 and 0.6783

Question: What about the “Cell viability (fraction of DMSO control)” value ([1]; QST 100 nM (log[nM] 2)) of the same compound?
Answer: 0.4804 and 0.526

Question: And the “Cell viability (fraction of DMSO control)” value ([1]; QST 250 nM (log[nM] 2.39794))?
Answer: 0.3237 and 0.3695

Question: And the “Cell viability (fraction of DMSO control)” value ([1]; QST 500 nM (log[nM] 2.69897))?
Answer: 0.2733 and 0.2932

Question: And the “Cell viability (fraction of DMSO control)” value ([1]; QST 1000 nM (log[nM] 3))?
Answer: 0.2807 and 0.2449

Question: What about the “Cell viability (fraction of DMSO control)” value ([2]; GB187x, QST 10 nM (log[nM] 1)) of the same compound?
Answer: 0.9255 and 0.9282

Question: What about the “Cell viability (fraction of DMSO control)” value ([2]; GB187x, QST 25 nM (log[nM] 1.39794)) of the same compound?
Answer: 0.8647 and 0.8308

Question: What about the “Cell viability (fraction of DMSO control)” value ([2]; GB187x, QST 50 nM (log[nM] 1.69897)) of the same compound?
Answer: 0.7684 and 0.7163

Question: And the “Cell viability (fraction of DMSO control)” value ([2]; GB187x, QST 100 nM (log[nM] 2))?
Answer: 0.6258 and 0.5995

Question: What about the “Cell viability (fraction of DMSO control)” value ([2]; GB187x, QST 250 nM (log[nM] 2.39794)) of the same compound?
Answer: 0.5316 and 0.4983

Question: And the “Cell viability (fraction of DMSO control)” value ([2]; GB187x, QST 500 nM (log[nM] 2.69897))?
Answer: 0.4749 and 0.464

Question: What about the “Cell viability (fraction of DMSO control)” value ([2]; GB187x, QST 1000 nM (log[nM] 3)) of the same compound?
Answer: 0.4026 and 0.4385

Question: What about the viability at 0.01 µM ([2]; Homo sapiens, GB187x, QST 10 nM (log[nM] 1), read-out: Cell viability (fraction of DMSO control)) of the same compound?
Answer: 88.5%

Question: What about the viability at 0.025 µM ([2]; Homo sapiens, GB187x, QST 25 nM (log[nM] 1.39794), read-out: Cell viability (fraction of DMSO control)) of the same compound?
Answer: 79.9%

Question: What about the viability at 0.05 µM ([2]; Homo sapiens, GB187x, QST 50 nM (log[nM] 1.69897), read-out: Cell viability (fraction of DMSO control)) of the same compound?
Answer: 70.8%

Question: And the viability at 0.1 µM ([2]; Homo sapiens, GB187x, QST 100 nM (log[nM] 2), read-out: Cell viability (fraction of DMSO control))?
Answer: 59%

Question: And the viability at 0.25 µM ([2]; Homo sapiens, GB187x, QST 250 nM (log[nM] 2.39794), read-out: Cell viability (fraction of DMSO control))?
Answer: 53.2%

Question: And the viability at 0.5 µM ([2]; Homo sapiens, GB187x, QST 500 nM (log[nM] 2.69897), read-out: Cell viability (fraction of DMSO control))?
Answer: 47.1%

Question: And the viability at 1 µM ([2]; Homo sapiens, GB187x, QST 1000 nM (log[nM] 3), read-out: Cell viability (fraction of DMSO control))?
Answer: 43.9%

Question: What about the IC50 ([2]; Homo sapiens, GB187, 3-5 days) of the same compound?
Answer: 100 nM
